Data set [1] can be described thus: physchem. Particulars: for solubility at 2 h: 25 °C, aqueous with cosolvent or surfactant or cyclodextrin, thermodynamic from solid, solubility with CD-g-CS. The protocol: Acetic acid [1 mL, 1 % (v/v)] was used to dissolve 10 mg of CD-g-CS, and the pH of the solution was adjusted to be similar to that of the distilled water. […] A vortex mixer was used to mix the suspension followed by sonication for 20 min. The mixture was then stirred for 2 h at 25°C followed by the centrifugation of the suspension at 8,000 r/min for 10 min. The supernatant was filtered using a membrane with 0.45-μm pore size.

Data set [2] in a line: Aqueous solubility of sulfonamides (UV-Vis). Particulars: thermodynamic from solid. The protocol:
Aqueous solubility measurements were conducted according to the method of Wang and Wang ([2000]). […] The mixture was agitated until reaching equilibrium with water in the equilibrium cell and then kept for 30 min. A known amount of the upper layer of the mixture was removed from the equilibrium cell and diluted with distilled water. The calibration curve established by ultraviolet–visible spectrophotometry (UV–Vis) was used to determine the concentration of the solution.

The conditions of data set [3]: added 6 μg/mL (sulfamethoxazole 8 μg/mL). The protocol:
The stability test was performed by keeping the samples for 0h, 1h, 2h, 4h, 6h, 8h, 24h at room temperature before analysis. […] S2.

The subject of data set [4] is S. xylosus. Put plainly: Uptake of doxorubicin hydrochloride by flow cytometry (FCS). In kind it is cell-based, Staphylococcus xylosus. As to conditions: 50 μmol/L doxorubicin hydrochloride, CD-g-CS 0.5, 2, 5 mg/mL, 1 h, 37°C. The method, then:
The cultured S. xylosus in the logarithmic phase were mixed with CD-g-CS (5, 2, or 0.5 mg/mL) containing 50 μmol/L doxorubicin hydrochloride. The mixtures were incubated at 37°C for 1 h. Subsequently, the S. xylosus solutions were centrifuged, washed three times with PBS (pH = 7.2), and resuspended in 500 μL PBS. For each sample, S. xylosus was sorted using a Flow Cytometry System (FCS). S. xylosus treated with only doxorubicin hydrochloride served as a control.

Data set [5] concerns S. xylosus. Put plainly: Uptake of doxorubicin hydrochloride by CLSM. In kind it is cell-based, Staphylococcus xylosus. Particulars: 50 μmol/L doxorubicin hydrochloride, 2 mg/mL CD-g-CS, 30 min, 1 and 3 h. The protocol: Cultured S. xylosus in the logarithmic phase was mixed with 2 mg/mL CD-g-CS containing 50 μmol/L doxorubicin hydrochloride. The mixtures were incubated at 37°C for 30 min, 1 or 3 h. The mixtures of S. xylosus were then centrifuged, washed three times, and re-suspended in 500 μL PBS (pH = 7.2). Each sample with S. xylosus was placed on a glass slide and observed by confocal laser scanning microscopy (CLSM). S. xylosus treated with only doxorubicin hydrochloride for 30 min, 1 or 3 h served as the control.

Values after ≈ are worked out from the molar mass of the structure shown. Where a name gives a salt, the structure may show the parent alone. Read-outs that look alike come from different tables or passages of the source.

In the case of `COc1cc(NS(=O)(=O)c2ccc(N)cc2)ncn1` [sulfamonomethoxine], the concentration in solution in data set [1] (solubility at 2 h) came to 283 ± 13 µg/mL (≈ 1010 µM). In addition, the solubility (as a rule, how much of the substance goes into solution per volume) in data set [2] (distilled water) is 69 ± 1.59 µg/mL (≈ 246 µM). In addition, the Measured concentration in data set [3] (0h at room temperature) was determined as 6.09 ± 0.060 µg/mL; in data set [3] (1h at room temperature), 6.09 ± 0.026 µg/mL; in data set [3] (2h at room temperature), 5.93 ± 0.021 µg/mL; in data set [3] (4h at room temperature) it was 6.12 ± 0.018 µg/mL; in data set [3] (6h at room temperature), 5.88 ± 0.018 µg/mL; in data set [3] (8h at room temperature) it was 6.12 ± 0.046 µg/mL. The Measured concentration in data set [3] (24h at room temperature) was found to be 6.13 ± 0.015 µg/mL.

With `COc1cccc2c1C(=O)c1c(O)c3c(c(O)c1C2=O)C[C@@](O)(C(=O)CO)C[C@@H]3O[C@H]1C[C@H](N)[C@H](O)[C@H](C)O1` [doxorubicin hydrochloride], in data set [4], the “uptake of doxorubicin hydrochloride (fluorescence intensity, FCS)” value is reported as “very low”. In addition, the “uptake of doxorubicin hydrochloride (fluorescence intensity, CLSM)” value in data set [5] was “very weak”.

Take `Nc1ccc(S(=O)(=O)Nc2ncccn2)cc1` [sulfadiazine]: the solubility at 2 h in data set [1] (10 mg/mL CD-g-CS solution, with 10 mg/mL CD-g-CS (QCD = 0.6 × 10^2 μmol/g)) worked out at 147 ± 7.05 µg/mL (≈ 587 µM); in data set [1] (10 mg/mL CD-g-CS solution, with 10 mg/mL CD-g-CS (QCD = 0.643 × 10^3 μmol/g)), 236 ± 4.25 µg/mL (≈ 943 µM). Also, the “solubility enhancement compared to the aqueous solution” value in data set [1] (with 10 mg/mL CD-g-CS (QCD = 0.6 × 10^2 μmol/g)) is “approximately 5.6 times”; in data set [1] (with 10 mg/mL CD-g-CS (QCD = 0.643 × 10^3 μmol/g)), 9.1 times. This molecule gave a solubility in data set [2] (water) of 26 ± 1.68 µg/mL (≈ 104 µM). The Measured concentration in data set [3] (0h at room temperature) turned out to be 5.98 ± 0.078 µg/mL; in data set [3] (1h at room temperature), 6.04 ± 0.058 µg/mL; in data set [3] (2h at room temperature) it was 6.13 ± 0.013 µg/mL; in data set [3] (4h at room temperature), 5.89 ± 0.047 µg/mL; in data set [3] (6h at room temperature), 5.95 ± 0.055 µg/mL; in data set [3] (8h at room temperature), 6.14 ± 0.043 µg/mL. Moreover, the Measured concentration in data set [3] (24h at room temperature) worked out at 6.02 ± 0.054 µg/mL.

The values are drawn from PMC6335354, “Chitosan Grafted With β-Cyclodextrin: Synthesis, Characterization, Antimicrobial Activity, and Role as Absorbefacient and Solubilizer” (Frontiers in Chemistry, 2019).
